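Compound exposure: 48 hours, 5 concentrations, 96-well plates. GI50 marks 50% less growth. TGI is the concentration that stops growth completely.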
Assays:
Experiment in all cases: inhibition of tumour cell growth, NCI panel, 48 h
A498 renal = tested on: A498 renal
PC-3 prostate = tested on: PC-3 prostate
ACHN renal = tested on: ACHN renal
COLO 205 colon = tested on: COLO 205 colon
HCC-2998 colon = tested on: HCC-2998 colon
IGROV1 ovarian = tested on: IGROV1 ovarian
BT-549 breast = tested on: BT-549 breast
NCI/ADR-RES ovarian = tested on: NCI/ADR-RES ovarian
OVCAR-5 ovarian = tested on: OVCAR-5 ovarian
SW-620 colon = tested on: SW-620 colon

| Compound | GI50 (A498 renal) | TGI (A498 renal) | GI50 (PC-3 prostate) | TGI (PC-3 prostate) | GI50 (ACHN renal) | TGI (ACHN renal) | GI50 (COLO 205 colon) | TGI (COLO 205 colon) | GI50 (HCC-2998 colon) | TGI (HCC-2998 colon) | GI50 (IGROV1 ovarian) | TGI (IGROV1 ovarian) | GI50 (BT-549 breast) | TGI (BT-549 breast) | GI50 (NCI/ADR-RES ovarian) | TGI (NCI/ADR-RES ovarian) | GI50 (OVCAR-5 ovarian) | TGI (OVCAR-5 ovarian) | GI50 (SW-620 colon) | TGI (SW-620 colon) |
| --- | --- | --- | --- | --- | --- | --- | --- | --- | --- | --- | --- | --- | --- | --- | --- | --- | --- | --- | --- | --- |
| Cn1ccc(=Nc2ccc(NC(=O)c3ccc(N=c4ccn(C)c5ccc([N+](=O)[O-])cc45)cc3)cc2)cc1 | > 100 µM | > 100 µM | 9.2 µM | > 100 µM | > 100 µM | > 100 µM | 3.94 µM | > 100 µM | 3.85 µM | > 100 µM | 11.2 µM | > 100 µM | 71.5 µM | > 100 µM | > 100 µM | > 100 µM | > 100 µM | > 100 µM | 8.6 µM | > 100 µM |
| Nc1ccc(C#Cc2cncnc2Nc2ccc(OCc3cccc(F)c3)c(Cl)c2)cc1 | 1.7 µM | > 15.4 µM | 8.91 µM | > 25 µM | 6.87 µM | > 25 µM | > 25 µM | > 25 µM | 11.1 µM | > 25 µM | 4.93 µM | > 25 µM | > 21 µM | > 25 µM | 12.7 µM | > 25 µM | > 25 µM | > 25 µM | > 25 µM | > 25 µM |
| C/C=C(\C)C(=O)O[C@@H]1C(O)[C@H]2OC(COC(=O)CCC(=O)CCCCCC[C@H](CCCCC)O[C@@H]3OC(C)[C@H](OC(C)=O)C(O)[C@H]3O2)[C@H]1OC(=O)/C=C/c1ccccc1 (some centres undefined) | 0.12 µM | 5.59 µM | < 0.0132 µM | 16.7 µM | 0.0175 µM | 12.3 µM | < 0.01 µM | 1.79 µM | 1.79 µM | > 100 µM | < 0.0163 µM | 17.9 µM | 0.019 µM | 13.8 µM | 0.336 µM | > 100 µM | 2.16 µM | > 64.2 µM | < 0.0114 µM | > 60 µM |
| COC(=O)[C@]12CC[C@@H](C)[C@H](C)[C@@H]1C1=CC[C@@H]3[C@@]4(C)C(C=O)=C[C@@](C)(COC(C)=O)[C@@H]4[C@H](O)C[C@@]3(C)[C@]1(C)CC2 | 2.6 µM | 10.2 µM | 1.73 µM | 5.74 µM | 1.92 µM | 4.32 µM | 2.14 µM | 4.96 µM | 1.83 µM | 3.6 µM | 2.95 µM | 9.7 µM | 2.03 µM | 5.11 µM | 2.79 µM | 9.73 µM | 2.03 µM | 5.6 µM | 2.66 µM | 8.21 µM |
| O=C1c2ccccc2S(=O)(=O)N1CSC(=S)N1CCCC1 | > 100 µM | > 100 µM | 7.62 µM | > 100 µM | > 100 µM | > 100 µM | > 100 µM | > 100 µM | > 53.4 µM | > 100 µM | 19 µM | > 100 µM | > 100 µM | > 100 µM | > 100 µM | > 100 µM | > 100 µM | > 100 µM | > 100 µM | > 100 µM |
| CC(CN)[C@@H]1CC[C@]2(CO)CC[C@]3(C)[C@H](CC[C@@H]4[C@@]5(C)CCC(NCCO)C(C)(C)[C@@H]5CC[C@]43C)[C@@H]12 (some centres undefined) | 11 µM | 23.5 µM | 2.53 µM | 11.4 µM | 5.2 µM | 17.6 µM | 1.73 µM | 3.55 µM | 1.89 µM | 3.57 µM | 4.79 µM | 19.2 µM | 3.77 µM | 16.3 µM | 6.83 µM | 22.2 µM | 2.11 µM | 5 µM | 1.71 µM | 3.26 µM |
| O=C(O)CCC1COc2ccccc2O1 (centres undefined) |  | > 10 µM |  | > 10 µM |  | > 10 µM |  | > 10 µM |  | > 10 µM |  | > 10 µM |  | > 10 µM |  | > 10 µM |  | > 10 µM |  | > 10 µM |
| CN1CCN(c2ccc(-c3cnc4c(-c5csc6ccccc56)cnn4c3)cc2)CC1 | 4.2 µM | > 15 µM | 5.59 µM | > 15 µM | 2.95 µM | 6.13 µM | 7.28 µM | > 15 µM | 6 µM | > 15 µM | 7.55 µM | > 15 µM | 7.29 µM | > 15 µM | 6.2 µM | > 15 µM | > 15 µM | > 15 µM | 3.73 µM | 10.1 µM |
| O=C1C(Cl)=C(Nc2ccc3cn[nH]c3c2)C(=O)c2ccccc21 | 3.05 µM | 8.9 µM | 1.17 µM | 2.44 µM | 1.33 µM | 2.61 µM | 1.42 µM | 2.89 µM | 2.02 µM | 3.99 µM | 0.198 µM | 2.02 µM | 1.5 µM | 2.82 µM | 1.62 µM | 3.42 µM | 1.8 µM | 3.21 µM | 1.36 µM | 2.95 µM |
| Cc1cc(O)c2c(c1)C(=O)c1cc(O)cc(O)c1C2=O |  | 56.5 µM | 25 µM | > 100 µM |  | 73.3 µM |  | 42 µM |  | > 100 µM | 65.2 µM | > 100 µM | 25.4 µM | 86 µM | 36.8 µM | > 100 µM |  | > 100 µM |  | > 100 µM |
| Cc1cc(S(=O)(=O)Nc2nc3ccsc3c(=O)n2Cc2ccco2)c(S)cc1Cl | > 100 µM | > 100 µM | > 100 µM | > 100 µM | > 100 µM | > 100 µM | > 100 µM | > 100 µM | > 100 µM | > 100 µM | > 100 µM | > 100 µM | > 100 µM | > 100 µM | > 100 µM | > 100 µM | > 100 µM | > 100 µM | > 100 µM | > 100 µM |
| O=C1C=CC(=O)C1(Br)Br |  | 27.4 µM |  | 33.1 µM |  | 17.3 µM |  | 24.1 µM |  | 31.2 µM |  | 13.7 µM |  | 24.9 µM |  | 68.3 µM |  | 25.3 µM |  | 27.9 µM |
| N#Cc1c[nH]n2ccnc12 |  | > 100 µM |  | > 100 µM |  | > 100 µM |  | > 100 µM |  | > 100 µM |  | > 100 µM |  | > 100 µM |  | > 100 µM |  | > 100 µM |  | > 100 µM |
| COc1cc2cc(Oc3ccc(NC(=O)Nc4ccccc4)cc3)c(C)nc2cc1OCCN1CCCCC1 | 4.75 µM | 9.3 µM | 4.49 µM | 9.83 µM | 5.74 µM | 10.3 µM | 6.25 µM | 13.1 µM | 5.62 µM | 10.5 µM | 5.68 µM | 11 µM | 5.63 µM | 11.2 µM | 6.54 µM | 14.5 µM | 6 µM | 11.5 µM | 6.09 µM | 11.9 µM |

From PubChem BioAssay (NCI)
